Source: patent US6884407B1, “Methods for diagnostic imaging involving the use of a contrast agent and a coronary vasodilator” (Bristol-Myers Squibb Pharma Company, priority 1996, dated 2005)
Where two headings read alike, the source gives them in different places.

What was measured:
[1] = Calculated diameter of emulsified droplet to form a 10 μm vesicle (ideal gas law); format: physicochemical; conditions: for Diameter (μm) of emulsified droplet to make 10 micron vesicle: Table 2
Text: As noted above, compositions employed herein may also include, with respect to their preparation, formation and use, gaseous precursors that can be activated to change from a liquid or solid state into a gas by temperature, pH, light, and energy (such as ultrasound). The gaseous precursors may be made into gas by storing the precursors at reduced pressure. For example, a vial stored under reduced pressure may create a headspace of perfluoropentane or perfluorohexane gas, useful for creating a preformed gas prior to injection. Preferably, the gaseous precursors may be activated by temperature. Set forth below is a table listing a series of gaseous precursors which undergo phase transitions from liquid to gaseous states at relatively close to normal body temperature (37° C.) or below, and the size of the emulsified droplets that would be required to form a vesicle of a maximum size of 10 μm.
The ideal gas law, which can be used for calculating the increase in the volume of the gas bubbles upon transitioning from liquid to gaseous states, is as follows: PV=nRT where
Thus, for stabilization of the precursor in the liquid state in a mixture wherein the precursor droplet is spherical, the volume of the precursor droplet may be determined by the equation: Volume (spherical vesicle)=4/3 πr^3 where
(B) where D is the density of the precursor. Solving for the diameter of the liquid droplet, diameter/2=[3/4π[4/3·[πrgas^3]P/RT]MWn/D]^1/3 (C) which reduces to Diameter=2[[rgas^3]P/RT[MWn/D]]^1/3.

[2] = cited from earlier work; for Boiling Point: Table 2, CRC Handbook
[3] = cited from earlier work
[4] = saturated diacyl-sn-glycero-3-phosphocholines, main chain melting transition; cited from earlier work
myocardium = assay: Ultrasound dose range studies of myocardium echo enhancement before and after coronary vasodilator; format: in vivo; conditions: 20 Kg pig, dipyridamole 0.56 mg/Kg IV over 4 minutes with gas filled vesicles of Example 1
Protocol: This example includes a description of methods for imaging the cardiovascular region of a patient in accordance with methods within the scope of the present invention.
A 20 Kg pig is anesthetized with isoflurane and a Swan Ganz catheter is inserted to monitor hemodynamics. Dose range studies are conducted using the gas filled vesicles prepared in Example 1 to determine the minimum dose required to enhance the myocardium echo, which is defined as greater than 10 videodensitometry units as determined by repeated videodensity measurements. After the dose range studies are performed, dipyridamole is administered intravenously at a dose of 0.56 mg/Kg over a period of 4 minutes. After a 5 minute latency period, dose range studies are repeated.

[5] = Table 2, CRC Handbook, in g/mL (unit assumed)

Row | Molecule | Diameter (μm) of emulsified droplet to make 10 micron vesicle [1] [μm] | Boiling Point [2] [°C] | Density [3, 5] | Main Phase Transition Temperature [4] [°C] | also measured
1 | 2-methyl 1-butene | 2.5 | 31.2 | 0.6504 | – | –
2 | CCCCCCCCCCCC(=O)OC[C@H](COP(=O)([O-])OCC[N+](C)(C)C)OC(=O)CCCCCCCCCCC [1,2-(12:0)] | – | – | – | −1.0 | –
3 | CCCCCCCCCCCCC(=O)OC[C@H](COP(=O)([O-])OCC[N+](C)(C)C)OC(=O)CCCCCCCCCCCC [1,2-(13:0)] | – | – | – | 13.7 | –
4 | CCCCCCCCCCCCCC(=O)OC[C@H](COP(=O)([O-])OCC[N+](C)(C)C)OC(=O)CCCCCCCCCCCCC [1,2-(14:0)] | – | – | – | 23.5 | –
5 | CCCCCCCCCCCCCCC(=O)OC[C@H](COP(=O)([O-])OCC[N+](C)(C)C)OC(=O)CCCCCCCCCCCCCC [1,2-(15:0)] | – | – | – | 34.5 | –
6 | CCCCCCCCCCCCCCCC(=O)OC[C@H](COP(=O)([O-])OCC[N+](C)(C)C)OC(=O)CCCCCCCCCCCCCCC [1,2-(16:0)] | – | – | – | 41.4 | –
7 | CCCCCCCCCCCCCCCCC(=O)OC[C@H](COP(=O)([O-])OCC[N+](C)(C)C)OC(=O)CCCCCCCCCCCCCCCC [1,2-(17:0)] | – | – | – | 48.2 | –
8 | CCCCCCCCCCCCCCCCCC(=O)OC[C@H](COP(=O)([O-])OCC[N+](C)(C)C)OC(=O)CCCCCCCCCCCCCCCCC [1,2-(18:0)] | – | – | – | 55.1 | –
9 | CCCCCCCCCCCCCCCCCCC(=O)OC[C@H](COP(=O)([O-])OCC[N+](C)(C)C)OC(=O)CCCCCCCCCCCCCCCCCC [1,2-(19:0)] | – | – | – | 61.8 | –
10 | CCCCCCCCCCCCCCCCCCCC(=O)OC[C@H](COP(=O)([O-])OCC[N+](C)(C)C)OC(=O)CCCCCCCCCCCCCCCCCCC [1,2-(20:0)] | – | – | – | 64.5 | –
11 | CCCCCCCCCCCCCCCCCCCCC(=O)OC[C@H](COP(=O)([O-])OCC[N+](C)(C)C)OC(=O)CCCCCCCCCCCCCCCCCCCC [1,2-(21:0)] | – | – | – | 71.1 | –
12 | CCCCCCCCCCCCCCCCCCCCCC(=O)OC[C@H](COP(=O)([O-])OCC[N+](C)(C)C)OC(=O)CCCCCCCCCCCCCCCCCCCCC [1,2-(22:0)] | – | – | – | 74.0 | –
13 | CCCCCCCCCCCCCCCCCCCCCCC(=O)OCC(COP(=O)([O-])OCC[N+](C)(C)C)OC(=O)CCCCCCCCCCCCCCCCCCCCCC (stereo not shown) [1,2-(23:0)] | – | – | – | 79.5 | –
14 | CCCCCCCCCCCCCCCCCCCCCCCC(=O)OCC(COP(=O)([O-])OCC[N+](C)(C)C)OC(=O)CCCCCCCCCCCCCCCCCCCCCCC (stereo not shown) [1,2-(24:0)] | – | – | – | 80.1 | –
15 | C#CC(=C)C [1-butene-3-yne-2-methyl] | 2.4 | 34.0 | 0.6801 | – | –
16 | CCCCF [1-fluorobutane] | 1.2 | 32.5 | 0.6779 | – | diameter of emulsion droplets to make a gaseous precursor filled vesicle with an upper limit of 10 μm ([1]; equation (C), 37° C., 1 atmosphere): 0.0544 μm; liquid/gas phase transition temperature (boiling point) [2]: 32.5 °C; Density ([3]; at 20° C.): 0.7789 g/mL
17 | CCC(C)C [2-methyl butane (isopentane), 2-methyl butane] | 2.6 | – | 0.6201 | – | –
18 | CC=C(C)C [2-methyl-2-butene] | 2.5 | 38.6 | 0.6623 | – | –
19 | C#CC(C)C [3-methyl-1-butyne] | 2.5 | 29.5 | 0.6660 | – | –
20 | FC(F)(F)C(F)(F)C(F)(F)C(F)(F)F [decafluoro butane, perfluorobutane] | 3.0 | −2 | 1.517 | – | liquid/gas phase transition temperature (boiling point) [2]: 4 °C
21 | OCCN(CCO)c1nc(N2CCCCC2)c2nc(N(CCO)CCO)nc(N3CCCCC3)c2n1 [dipyridamole] | – | – | – | – | diagnostic artifacts (myocardium): substantially eliminated; dosage of contrast agent required to obtain a medically useful diagnostic image of the cardiovascular region (myocardium; after vs before dipyridamole): significantly smaller dosage
22 | FC(F)(F)C(F)(F)F [hexafluoro ethane] | 2.7 | – | 1.607 | – | –
23 | FC1(F)C(F)(F)C(F)(F)C1(F)F [octafluoro cyclobutane, octafluorocyclobutane] | 2.8 | −5.8 | 1.48 | – | –
24 | FC(F)(F)C(F)(F)C(F)(F)C(F)(F)C(F)(F)F [perfluoro pentane, perfluoropentane] | 2.9 | 29.5 | 1.7326 | – | liquid/gas phase transition temperature (boiling point) [2]: 29.5 °C
25 | FC(F)(F)C(F)(F)C(F)(F)C(F)(F)C(F)(F)C(F)(F)F [perfluorohexane] | – | – | – | – | liquid/gas phase transition temperature (boiling point) [2]: 57 °C
